Results on 2 compounds are retold here after US11352392B2, “Artificially synthesized peptide H-473 and use thereof” (CHINA WEST NORMAL UNIVERSITY, priority 2018, dated 2022).

Ends that are not written are not given here.

Series [1] deals with asthma in mice. Briefly: Effect on asthma in mice (OVA sensitization, BALF cell count). Conditions: dexamethasone 1 mg/kg intramuscular, 7 d. It counts as in vivo, BALB/C mice. How it is done: At day 35 of the experiment, the test samples were respectively given one hour prior to OVA atomization.
5.6.1 Asthma model: mice were injected intraperitoneally with 0.2 ml of a sensitizing solution (ovalbumin OVA 80 μg+ Adjuvant liquid aluminum 0.1 ml) twice on days 0 and 14. From day 24 after the first sensitization, 2.5% OVA was aerosolized and inhaled for 45 min once daily for 18 days.
5.6.2 Administration: the corresponding test sample was given 1 h before the OVA solution atomization challenge since day 35 of the experiment. H-473 15 μg/kg group and H-473 30 μg/kg group were injected intramuscularly, respectively. The positive control group was injected with dexamethasone 1 mg/kg intramuscularly. Normal control group and model control group were injected with saline intramuscularly.
General global observations: respiratory rate, whether there was dyspnea, cyanosis, dysphoria and convulsion.
Bronchoalveolar lavage fluid (BALF) cells were counted and classified (EOS ratio elevated or not).

The test system of series [2] is MGC-803 xenograft tumors. The series is described as follows: Pharmacodynamic experiment on human gastric cancer MGC-803 xenograft tumor in nude mice. Conditions: MGC-803 xenograft nude mice; H-473 1 μg/kg or Interleukin-2 200,000 IU/kg, tail vein, once a day for 10 times. It counts as in vivo, BALB/c nude mice. On the technique in general: In xenograft studies the graft and the host belong to different species.
Protocol: (§1) Model control group: physiological saline, 0.1 ml/10 g, once a day for 10 times.
The cultured MGC-803 cell suspension was collected at a concentration of 1×10^7 cells/ml and inoculated subcutaneously in the right axilla of nude mice, 0.1 ml/mouse.
Diameters of the xenograft tumors in nude mice were measured with a vernier caliper. 8 days after inoculation, the animals were randomized into groups with 8 in each group when the tumors grew to 100-150 mm^3. At the same time, each group of nude mice began to be dosed. […] The anti-tumor effect of the test sample was dynamically observed by using a method of measuring tumor diameter. […]
(§2) Tumor volume (TV) was calculated according to the following formula: TV=½×a×b^2, wherein, a and b represent length and width, respectively.
(§3) Relative tumor volume (RTV) was calculated according to the measured results according to the following formula: RTV=Vt/V0, wherein, V0 is tumor volume measured when the animals are divided into cages and dosed (i.e., d0) and Vt is tumor volume at each measurement.
(§4) Evaluation indicator of anti-tumor activity: relative tumor proliferation rate T/C (%) was calculated according to the following formula:
(§5) Evaluation indicator of antitumor activity: tumor growth inhibition rate (%) was calculated according to the following formula: […]

Series [3] concerns cfpac-1 xenograft tumors. The series is described as follows: Pharmacodynamic experiment on cfpac-1 xenograft tumor in nude mice. It counts as in vivo, BALB/c nude mice. The settings on record: cfpac-1 xenograft nude mice; H-473 1 μg/kg or Interleukin-2 200,000 IU/kg, tail vein, once a day for 10 times.
Protocol: as §1
The cultured cfpac-1 cell suspension was collected at a concentration of 1×10^7 cells/ml and inoculated subcutaneously in the right axilla of nude mice, 0.1 ml/mouse.
Diameters of the xenograft tumors in nude mice were measured with a vernier caliper. 17 days after inoculation, the animals were randomized into groups with 8 in each group when the tumors grew to 100-150 mm^3. At the same time, each group of nude mice began to be dosed. […] The anti-tumor effect of the test sample was dynamically observed by using a method of measuring tumor diameter. […]
as §2, §3, §4, §5

As to `C[C@@H]1C[C@H]2[C@@H]3CCC4=CC(=O)C=C[C@]4(C)[C@@]3(F)[C@@H](O)C[C@]2(C)[C@@]1(O)C(=O)CO` [Positive control, dexamethasone], in series [1], the “BALF ESO” value is 0.15 ± 0.05^## 10^9/L, the “BALF ESO %” value was 3.75 ± 0.83 % and the “BALF WBC” value was 3.8 ± 0.5^## 10^9/L.

Consider RGLRGLR [H-473, RGLRGLR], for which the “Body weight of animals At sacrifice” value in series [2] is listed as 22.80 ± 0.97 g; in series [3], 22.91 ± 1.12 g.
